Results as given in US11013746B2, “Drug for preventing and/or treating polycystic kidney disease” (OTSUKA PHARMACEUTICAL CO., LTD., priority 2012, dated 2021).

Tested on: pcy mice
Assay: Effect of tolvaptan and octreotide, alone or combined, on kidney weight of pcy mice (PKD model animals)
Format: in vivo
Conditions: male pcy mice, 0.03% tolvaptan in feed and/or octreotide 300 μg/kg × 2/day sc; for kidney weight suppressive effect compared to the pcy control group: 15 weeks of age, Dunnett's test; for Kidney weight (% body weight) Mean ± SE: 15 weeks old at autopsy, treated from 5 to 15 weeks of age, pcy control 8.02 ± 0.66, normal DBA 1.53 ± 0.04
Method: Individual or combined effects of tolvaptan, which is a vasopressin receptor antagonist, and octreotide, which is a somatostatin analogue, against polycystic kidney disease were evaluated using pcy mice, which are PKD model animals.
The aforementioned pcy mice are adult polycystic kidney disease model mice, and the mode of inheritance is autosomal recessive. […] It has been reported that compared to wild-type mice, pcy mice have increased renal cAMP levels and elevated renal mRNA levels of aquaporin-2 and vasopressin V2 receptor (V2R). For details, see Non-patent Literature (NPL) 1.
Based on the body weight at 4 weeks of age and the renal volume measured by MRI, the pcy mice (male) were divided into the following four groups (each group: 9 mice):
(2) a group receiving a feed containing 0.03% tolvaptan;
(3) a group receiving octreotide (300 μg/kg×2/day sc); and
(4) a group receiving a feed containing 0.03% tolvaptan, and octreotide (300 μg/kg×2/day sc).
As normal control mice, DBA/2JJcl mice (5 mice) were used. A 0.03% tolvaptan-containing MF feed was given to the groups receiving tolvaptan. A MF feed not containing tolvaptan was given to the other groups, i.e., the control group and the group receiving octreotide alone. Sandostatin® subcutaneous injection (100 μg/ml) was diluted with physiological saline and subcutaneously injected in an amount of 300 μg/kg/10 ml to the group receiving octreotide twice a day, morning and evening.
The drug treatment was started from 5 weeks of age, and continued until 15 weeks of age. Urine was collected from each mouse at 14 weeks of age using metabolic cages for 19 hours, and urine volume and urinary albumin excretion were measured.
The DBA control mice and pcy mice were sacrificed under isoflurane anesthesia at 15 weeks of age to collect their blood, and right and left kidneys. Plasma parameters were measured from the obtained blood, and the weight of right and left kidneys was measured.

| Compound | kidney weight suppressive effect compared to the pcy control group | Kidney weight (% body weight) Mean ± SE [% body weight] |
| --- | --- | --- |
| (−)-D-phenylalanyl-L-cysteinyl-L-phenylalanyl-D-tryptophyl-L-lysyl-L-threonyl-N-[(1R,2R)-2-hydroxy-1-(hydroxymethyl)propyl]-L-cysteinamide cyclic (2-47) disulfide [octreotide] | did not exhibit significant kidney weight suppressive effects | 6.68 ± 0.65 |
| Cc1ccccc1C(=O)Nc1ccc(C(=O)N2CCCC(O)c3cc(Cl)ccc32)c(C)c1 (stereo not shown) [tolvaptan, 7-chloro-5-hydroxy-1-[2-methyl-4-(2-methylbenzoylamino)benzoyl]-2,3,4,5-tetrahydro-1H-benzoazepine] | did not exhibit significant kidney weight suppressive effects | 7.28 ± 0.84 |
